Measured values reported in patent US20200378993A1, “MEDICAL USES OF APOLIPOPROTEIN A AND ACTIVATORS THEREOF” (FUNDACIÓN IMDEA ALIMENTACIÓN, priority 2017, published 2020).

Assays:
Assay type in all cases: cell-based, human
DLD1_ABCA1 cells = test: Invasion assay (Corning BioCoat Matrigel plates); conditions: Rvx-208 with ApoA1 silenced by shApoA1; cells with high ABCA1 levels
Description: FIG. 6. A) Proliferation curve in a viability assay carried out by means of XCELLigence technology. The results for the stable cell line overexpressing ABCA1 in the absence and presence of ApoA1 are shown. The cells were treated for 72 hours before the experiment with 40 μg/ml of ApoA1 and with a concentration of 20 μg/ml during acquisition. B) Migration and invasion assays. The method followed was the same as the one described in FIG. 1. (**p-value=0.003; ****p-value<0.0001). C) ABCA1 messenger RNA level (left panel) and ABCA1 protein level (right panel) in the presence and absence of treatment with ApoA1. […]
(§1) The inventors were able to confirm said results based on the treatment of DLD1 cells expressing ABCA1 with RVX-208 under the conditions already described in detail in Example 3. […] The levels of caveolin-1, a protein whose increased levels have been associated with increases in cell migration and invasion, were also analyzed in this experiment.
For the purpose of confirming that the effects of RVX-208 in cell phenotype recovery were due to the increase in ApoA-1 expression, the inventors inhibited the expression of said protein by means of transfection of a complementary small RNA, ShApoA1 (FIG. 9). […] Cell viability and proliferation in DLD1 cells (D_NoORF) and D1D1 cell lines expressing increased ApoA1 levels (D_ApoA1 ) were analyzed with the xCELLigence system.

vimentin = test: Epithelial-mesenchymal transition marker expression by quantitative PCR; conditions: RVX-208 30 μm 72 hours then 15 μM
Description: (§2) FIG. 4. A) Proliferation curve in a viability assay carried out by means of XCELLigence technology. Growth of DLD1 cells treated with DMSO as the drug carrier and with Rvx-208 (30 μM). The significant differences existing in the slope of the graph, and therefore in the growth dynamics of the treated cells are shown in the right panel (**p-value=0.0087). B) Image representing the untreated cell cultures and those treated with Rvx-208. Expression levels of proteins E-cadherin and vimentin in the presence and absence of Rvx-208. Analysis performed by means of quantitative PCR. The relative expression levels normalized with respect to the untreated control are shown. C) Migration and invasion assays in the presence of Rcx-208. FIG. 7. A) Proliferation curve in a viability assay carried out by means of XCELLigence technology. Growth of DLD1 cells treated with DMSO as the drug carrier and with Rvx-208 (30 μM). The significant differences existing in the slope of the graph, and therefore in the growth dynamics of the treated cells are shown in the right panel (****p-value<0.0001). B) Migration and invasion assays. The method followed was the same as the one described in FIG. 2 (*p-value=0.0407; ****p-value<0.0001). C) Expression levels of proteins E-cadherin and Vimentin in the presence and absence of Rvx-208. Analysis performed by means of quantitative PCR. The relative expression levels normalized with respect to the untreated control are shown. D) ABCA1, ApoA1, caveolin-1, and α-tubulin immunodetection by means of Western blot. α-tubulin acts as load control. The results of the cells treated with Rvx-208 (30 μM) or with the DMSO carrier are shown. E) Cholesterol flux in cells treated with Rvx-208. The same assays were repeated by replacing ApoA1 with a treatment with RVX-208. In this case, DLD1 cells were pre-treated for 72 hours before the start of the experiment with RVX-208 at a concentration of 30 μm and were subjected to a treatment with 15 μM of RVX-208 during the development of the experiments. […] The inventors were able to confirm said results based on the treatment of DLD1 cells expressing ABCA1 with RVX-208 under the conditions already described in detail in Example 3. In this case, the DLD1 cells overexpressing ABCA1 were pre-treated for 72 hours before the start of the experiment with RVX-208 at a concentration of 30 μm and were subjected to a treatment with 15 μM of RVX-208 during the development of the experiments. […] The levels of caveolin-1, a protein whose increased levels have been associated with increases in cell migration and invasion, were also analyzed in this experiment.

E-cadherin = test: as above; conditions: RVX-208 30 μm 72 hours then 15 μM
Description: as §2

[1] = test system: ABCA1 cholesterol transporter; test: ABCA1 messenger RNA and protein level after treatment; conditions: treatment with Rvx-208 (30 μM); Western blot
Description: FIG. 6. A) Proliferation curve in a viability assay carried out by means of XCELLigence technology. The results for the stable cell line overexpressing ABCA1 in the absence and presence of ApoA1 are shown. The cells were treated for 72 hours before the experiment with 40 μg/ml of ApoA1 and with a concentration of 20 μg/ml during acquisition. B) Migration and invasion assays. The method followed was the same as the one described in FIG. 1. (**p-value=0.003; ****p-value<0.0001). C) ABCA1 messenger RNA level (left panel) and ABCA1 protein level (right panel) in the presence and absence of treatment with ApoA1. Results are shown both for the control cells and for those cells overexpressing the transporter.
FIG. 7. A) Proliferation curve in a viability assay carried out by means of XCELLigence technology. Growth of DLD1 cells treated with DMSO as the drug carrier and with Rvx-208 (30 μM). The significant differences existing in the slope of the graph, and therefore in the growth dynamics of the treated cells are shown in the right panel (****p-value<0.0001). B) Migration and invasion assays. The method followed was the same as the one described in FIG. 2 (*p-value=0.0407; ****p-value<0.0001). C) Expression levels of proteins E-cadherin and Vimentin in the presence and absence of Rvx-208. Analysis performed by means of quantitative PCR. The relative expression levels normalized with respect to the untreated control are shown. D) ABCA1, ApoA1, caveolin-1, and α-tubulin immunodetection by means of Western blot. α-tubulin acts as load control. The results of the cells treated with Rvx-208 (30 μM) or with the DMSO carrier are shown. E) Cholesterol flux in cells treated with Rvx-208.
Cell viability and proliferation assays were carried out by means of XCELLigence technology (ACEA Biosciences, Inc.) following the manufacturer's indications. Migration and invasion assays were carried out in Corning® BioCoat™ Control plates (#354578) and Corning® BioCoat™ Matrigel plates (#354480), respectively, following the manufacturer's indications. For the rescue assays, the cells were treated for 72 hours with 30 μM apabetalone (RVX-208; Biovision). Antibodies: ABCA1 (Ab18180, Abcam. 1:500); caveolin-1 (Ab2910, Abcam. 1:1000); α-tubulin (T9026, Sigma 1:1000). The DLD1 cells correspond to a human colorectal cancer-derived adherent epithelial cell line (ATCC® CCL-221™). […]
as §1

[2] = DLD1 cells overexpressing ABCA1

COc1cc(OC)c2c(=O)[nH]c(-c3cc(C)c(OCCO)c(C)c3)nc2c1 [RVX-208, 2-(4-(2-hydroxyethoxy)-3,5-dimethylphenyl)-5,7-dimethoxyquinazolin-4(3H)-one] was tested, and the “effectiveness of treatment in terms of a decrease in cell invasion capacities” value (DLD1_ABCA1 cells) was “reduces the effectiveness of treatment”, the vimentin levels (vimentin; DLD1 cells) was “decrease in vimentin levels” and the vimentin levels (vimentin; [2]) was “decrease in vimentin levels”. For the same compound, the E-cadherin expression levels (E-cadherin; DLD1 cells) was “increase in E-cadherin expression levels”, the E-cadherin expression levels (E-cadherin; [2]) was “increase in E-cadherin expression levels” and the ABCA1 expression levels [1] was “reduces ABCA1 expression levels”.
